Broadly, the IC50 is the concentration at which inhibition is half-maximal. As a reminder, the Ki is the equilibrium dissociation constant of an inhibitor or competing ligand from its target.

Experiment [1] has as its target T1, C5 (Homo sapiens, UniProt P01031). Briefly: Competitive fluorescence polarization assay with probe R3076. More on the design: purchased Complement Technology, Tyler, Tex. The experiment is classed as binding. As for the experimental part: FP allows binding events to be measured in a homogenous solution.
Polarization was measured over time, until binding reached equilibrium. KD was determined using Graphpad Prism (using “Saturating Binding Curves, One Site—Specific Binding With Hill Slope” as the curve fit to determine KD).
10 μl of this working stock was then added to each well in the assay plate. The assay plate was incubated at room temperature, protected from light, for 20 minutes to allow binding to reach equilibrium.
Test articles listed in Table 7 were subsequently diluted in DMSO then assay buffer, comprising 10 2-fold dilutions and were then added to the assay plate in triplicate, rapidly. The assay plate was then incubated in the Paradigm (Molecular Devices, Sunnyvale, Calif.) plate reader for 60 minutes at 25° C.
After incubation for 60 minutes, the plate was read using the Paradigm FP protocol (Molecular Devices, Sunnyvale, Calif.) and raw polarization values were imported into Graphpad Prism.
(Fluorescence polarisation rises when a labelled molecule tumbles more slowly, as on binding a larger partner.)

Experiment [2] addresses T1, C5. The experiment in a line: Human hemolysis assay (RBC lysis assay using complete human sera). It counts as cell-based. More on the design: with complete human sera (Complement Technology, Tyler Tex.) and polypeptides; tissue Complement Technology, Tyler Tex; host or cells: complete human serum. The following applies: inhibition of lysis of antibody-sensitized sheep erythrocytes, complete human sera.

Setting [3] is: average of Exp 1 and Exp 2, read-out: Avg, nM IC50.
[4] abbreviates: average of Exp 1 and Exp 2, read-out: Avg, nM Ki.
Setting [5] is: competition with probe R3076 25 nM, C5 50 nM, 60 min at 25° C., experiment 1, read-out: IC50 nM, Exp 1.
[6] abbreviates: competition with probe R3076 25 nM, C5 50 nM, 60 min at 25° C., experiment 1, read-out: Ki nM, Exp 1.
Where [7] appears, read: competition with probe R3076 25 nM, C5 50 nM, 60 min at 25° C., experiment 2, read-out: IC50 nM, Exp 2.
Setting [8] is: competition with probe R3076 25 nM, C5 50 nM, 60 min at 25° C., experiment 2, read-out: Ki nM, Exp 2.

Entries after “also recorded” stand apart in the source; their conditions may differ. Where two headings read alike, the source gives them in different places. Starred links: 1 amine or outer side, 2 acyl side, 3 side chain; linkers in the order of their positions; H or OH if unused. Positions of bridges follow the written chain, without caps; N, C: chain ends. Non-standard residues stand in square brackets, D forms with d. Residues, ends and D or L forms follow the SMILES beside them. Trp(7-aza) = N[C@@H](Cc1c[nH]c2ncccc12)C(=O)O; mXylylene = c1cc(C[*:1])cc(C[*:2])c1; pXylylene = c1cc(C[*:2])ccc1C[*:1]; Phg = N[C@H](C(=O)O)c1ccccc1; Tle = CC(C)(C)[C@H](N)C(=O)O; NMeS = CN[C@@H](CO)C(=O)O; hCys = N[C@@H](CCS)C(=O)O; Nva = CCC[C@H](N)C(=O)O Some results are limits rather than exact numbers.

T1 sequence (P01031 19-1676): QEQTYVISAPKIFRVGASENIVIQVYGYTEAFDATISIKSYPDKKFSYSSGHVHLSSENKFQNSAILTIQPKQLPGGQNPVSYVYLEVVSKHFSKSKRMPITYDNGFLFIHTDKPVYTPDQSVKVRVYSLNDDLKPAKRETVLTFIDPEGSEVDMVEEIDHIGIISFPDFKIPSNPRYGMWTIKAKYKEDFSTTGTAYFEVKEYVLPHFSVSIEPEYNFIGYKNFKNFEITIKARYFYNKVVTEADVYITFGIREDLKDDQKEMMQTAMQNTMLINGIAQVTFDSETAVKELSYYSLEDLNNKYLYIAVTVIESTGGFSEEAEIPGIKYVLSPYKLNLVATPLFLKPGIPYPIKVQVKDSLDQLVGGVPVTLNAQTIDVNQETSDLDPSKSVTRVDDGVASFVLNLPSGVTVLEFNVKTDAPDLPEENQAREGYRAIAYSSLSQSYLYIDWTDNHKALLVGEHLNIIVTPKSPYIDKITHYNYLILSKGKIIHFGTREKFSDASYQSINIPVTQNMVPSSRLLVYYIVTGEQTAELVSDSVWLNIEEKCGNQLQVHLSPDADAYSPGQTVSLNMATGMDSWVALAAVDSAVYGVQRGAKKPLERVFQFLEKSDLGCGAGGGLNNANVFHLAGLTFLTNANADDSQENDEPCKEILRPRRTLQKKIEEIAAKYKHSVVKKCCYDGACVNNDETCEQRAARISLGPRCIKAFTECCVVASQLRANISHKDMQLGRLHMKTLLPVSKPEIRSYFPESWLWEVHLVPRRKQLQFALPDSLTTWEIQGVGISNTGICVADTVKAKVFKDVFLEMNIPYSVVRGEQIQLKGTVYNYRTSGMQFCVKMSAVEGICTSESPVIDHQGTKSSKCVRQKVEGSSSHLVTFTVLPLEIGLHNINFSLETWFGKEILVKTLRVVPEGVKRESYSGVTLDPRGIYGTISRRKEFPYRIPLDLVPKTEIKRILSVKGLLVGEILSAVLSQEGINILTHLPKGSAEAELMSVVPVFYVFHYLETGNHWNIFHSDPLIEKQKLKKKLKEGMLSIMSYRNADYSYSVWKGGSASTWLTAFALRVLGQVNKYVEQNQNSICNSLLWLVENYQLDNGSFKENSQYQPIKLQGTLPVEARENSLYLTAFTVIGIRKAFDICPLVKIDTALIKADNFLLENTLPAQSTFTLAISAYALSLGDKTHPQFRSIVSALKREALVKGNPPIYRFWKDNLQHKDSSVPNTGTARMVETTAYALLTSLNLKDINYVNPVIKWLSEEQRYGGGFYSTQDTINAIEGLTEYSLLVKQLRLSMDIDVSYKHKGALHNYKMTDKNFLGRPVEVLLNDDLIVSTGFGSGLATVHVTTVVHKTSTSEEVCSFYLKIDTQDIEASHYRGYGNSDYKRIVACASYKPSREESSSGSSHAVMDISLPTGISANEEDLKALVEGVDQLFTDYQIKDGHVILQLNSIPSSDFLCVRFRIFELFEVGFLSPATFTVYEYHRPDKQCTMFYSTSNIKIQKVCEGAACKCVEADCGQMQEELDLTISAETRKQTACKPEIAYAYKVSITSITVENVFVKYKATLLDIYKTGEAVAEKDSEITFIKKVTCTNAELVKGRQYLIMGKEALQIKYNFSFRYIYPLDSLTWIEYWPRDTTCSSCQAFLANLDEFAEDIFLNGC

Consider `CCC[C@H](NC(=O)[C@@H]1CCCN1C(=O)[C@H](CCC)NC(=O)[C@@H]1CSCc2cccc(c2)CSC[C@H](NC(C)=O)C(=O)N[C@@H](c2ccccc2)C(=O)N[C@@H]([C@@H](C)O)C(=O)N[C@@H](Cc2c[nH]c3ncccc23)C(=O)N[C@@H](CCC(=O)O)C(=O)N[C@@H](Cc2ccc(O)cc2)C(=O)N(C)[C@@H](CO)C(=O)N[C@@H](Cc2c[nH]cn2)C(=O)N1)C(N)=O` [Compound R3014, [mXylyl(1,9)]Ac-C-Phg-T-azaTrp-E-Y-(N-Me)S-H-C-Nvl-P-Nvl-NH2] (Ac-C[Phg]T[Trp(7-aza)]EY[NMeS]HC[Nva]P[Nva]-NH2; linker 1-9 via mXylylene), for which the half-maximal inhibitory concentration (IC50) on C5 [1] (setting [3]) worked out at 6820 nM; on C5 [1] (setting [5]) it was 6060 nM; on C5 [1] (setting [7]), 7580 nM; at C5 [2], 1420 nM. For the same molecule, the inhibition constant Ki at C5 [1] (setting [4]) is 1490 nM; on C5 [1] (setting [6]) it was 1400 nM; at C5 [1] (setting [8]), 1590 nM. Moreover, the “competition with labeled probe / affinity for C5 (in words)” value on C5 [1] (probe R3076 25 nM, C5 50 nM) was “weak affinity”.
As to `CCC[C@H](NC(C)=O)C(=O)N[C@H]1CSCc2cccc(c2)CSC[C@@H](C(=O)N[C@@H](CCC)C(=O)N2CCC[C@H]2C(N)=O)NC(=O)[C@H](Cc2c[nH]cn2)NC(=O)[C@H](CO)N(C)C(=O)[C@H](Cc2ccc(O)cc2)NC(=O)[C@H](CCC(=O)O)NC(=O)[C@H](Cc2c[nH]c3ncccc23)NC(=O)[C@H]([C@@H](C)O)NC(=O)[C@H](c2ccccc2)NC1=O` [Compound R3011, [mXylyl(2,10)]Ac-Nvl-C-Phg-T-azaTrp-E-Y-(N-Me)S-H-C-Nvl-P-NH2] (Ac-[Nva]C[Phg]T[Trp(7-aza)]EY[NMeS]HC[Nva]P-NH2; linker 2-10 via mXylylene), the IC50 on C5 [1] (setting [3]) came to 278 nM; on C5 [1] (setting [5]), 295 nM; at C5 [1] (setting [7]), 261 nM; on C5 [2], 112 nM. The Ki at C5 [1] (setting [4]) came out at 80 nM; at C5 [1] (setting [6]), 73.2 nM; at C5 [1] (setting [8]) it was 86.9 nM. On C5 [1] (probe R3076 25 nM, C5 50 nM), the “competition with labeled probe / affinity for C5 (in words)” value was “relatively strong affinity”.
In the case of `CCC[C@H](NC(=O)[C@H](Cc1ccc(O)cc1)NC(=O)[C@H](CC(N)=O)NC(=O)[C@H](CCC)NC(=O)[C@H](CCC(=O)O)NC(=O)[C@@H](NC(=O)[C@H](Cc1c[nH]c2ncccc12)NC(=O)[C@@H](NC(=O)[C@H](CS)NC(=O)[C@H](Cc1ccc(O)cc1)NC(=O)[C@@H]1CCCN1C(=O)[C@H](Cc1ccc(O)cc1)NC(C)=O)c1ccccc1)C(C)(C)C)C(=O)N[C@@H](CCC(=O)O)C(N)=O` [Compound R3023, Ac-Y-P-Y-C-Phg-azaTrp-Tbg-E-Nvl-N-Y-Nvl-E-NH2] (Ac-YPYC[Phg][Trp(7-aza)][Tle]E[Nva]NY[Nva]E-NH2), the IC50 was > 1000 nM on C5 [1] (setting [3]), > 1000 nM at C5 [1] (setting [5]), > 1000 nM at C5 [1] (setting [7]) and > 100000 nM at C5 [2]. Also, the Ki on C5 [1] (setting [4]), on C5 [1] (setting [6]) and on C5 [1] (setting [8]) was > 1000 nM throughout. Further, the “competition with labeled probe / affinity for C5 (in words)” value on C5 [1] (probe R3076 25 nM, C5 50 nM) is listed as “no activity at the highest concentration tested; also recorded: not detected at the highest concentration tested; also recorded: no affinity”.
For `CCC[C@H](NC(C)=O)C(=O)N[C@@H](CS)C(=O)N[C@@H](Cc1ccc(O)cc1)C(=O)N[C@@H](CCC(=O)O)C(=O)N[C@@H](CC(N)=O)C(=O)N[C@H](C(=O)N[C@@H](Cc1ccc(O)cc1)C(=O)N[C@@H](Cc1c[nH]c2ncccc12)C(=O)N[C@@H](CCC(=O)O)C(=O)N[C@@H](Cc1ccc(O)cc1)C(=O)N1CCC[C@H]1C(=O)N[C@H](C(=O)N1CCC[C@H]1C(N)=O)c1ccccc1)C(C)(C)C` [Compound R3003, Ac-Nvl-C-Y-E-N-Tbg-Y-azaTrp-E-Y-P-Phg-P-NH2] (Ac-[Nva]CYEN[Tle]Y[Trp(7-aza)]EYP[Phg]P-NH2), the IC50 at C5 [1] (setting [3]) amounted to 68.4 nM; on C5 [1] (setting [5]) it was 72.7 nM; on C5 [1] (setting [7]), 64.1 nM; on C5 [2], 13.9 nM. The Ki on C5 [1] (setting [6]) is 10.4 nM; at C5 [1] (setting [8]), 8.69 nM; at C5 [1] (probe R3076 25 nM, C5 50 nM, read-out: Ki), 9.54 nM. Also, the “competition with labeled probe / affinity for C5 (in words)” value on C5 [1] (probe R3076 25 nM, C5 50 nM) is “most potent”.
`CCC[C@H](NC(=O)[C@@H]1CSCc2cccc(c2)CSC[C@H](NC(=O)[C@H](CCC)NC(C)=O)C(=O)N[C@@H](C)C(=O)N[C@@H]([C@@H](C)O)C(=O)N[C@@H](Cc2c[nH]c3ncccc23)C(=O)N[C@@H](CCC(=O)O)C(=O)N[C@@H](Cc2ccc(O)cc2)C(=O)N(C)[C@@H](CO)C(=O)N[C@@H](Cc2c[nH]cn2)C(=O)N1)C(N)=O` [Compound R3032, [mXylyl(2,10)]Ac-Nvl-C-A-T-azaTrp-E-Y-(N-Me)S-H-C-Nvl-NH2] (Ac-[Nva]CAT[Trp(7-aza)]EY[NMeS]HC[Nva]-NH2; linker 2-10 via mXylylene): on C5 [2], the half-inhibitory concentration (IC50) is > 10000 nM.
Take `CCC[C@H](NC(=O)[C@@H](NC(=O)[C@@H]1CCCN1C(=O)[C@H](Cc1ccc(O)cc1)NC(=O)[C@H](CCC(=O)O)NC(=O)[C@H](Cc1c[nH]c2ncccc12)NC(=O)[C@H](Cc1ccc(O)cc1)NC(=O)[C@@H](NC(=O)[C@H](CC(=O)O)NC(=O)[C@@H]1CSCc2cccc(c2)CSC[C@H](NC(=O)[C@@H](N)CCSC)C(=O)N[C@@H](C(C)C)C(=O)N[C@@H](CCC(=O)O)C(=O)N[C@@H](CCCNC(=N)N)C(=O)N[C@@H](Cc2ccccc2)C(=O)N1)C(C)(C)C)c1ccccc1)C(N)=O` [Compound R3057, [mXylyl(2,7)]M-C-V-E-R-F-C-D-Tbg-Y-azaTrp-E-Y-P-Phg-Nvl-NH2] (H-MCVERFCD[Tle]Y[Trp(7-aza)]EYP[Phg][Nva]-NH2; linker 2-7 via mXylylene): at C5 [2], the IC50 came to 12.4 nM.
For `CSCC[C@H](N)C(=O)N[C@H]1CSCc2cccc(c2)CSC[C@@H](C(=O)N[C@@H](CC(=O)O)C(=O)N[C@H](C(=O)N[C@@H](Cc2ccc(O)cc2)C(=O)N[C@@H](Cc2c[nH]c3ccccc23)C(=O)N[C@@H](CCC(=O)O)C(N)=O)C(C)C)NC(=O)[C@H](Cc2ccccc2)NC(=O)[C@H](CCCNC(=N)N)NC(=O)[C@H](CCC(=O)O)NC(=O)[C@H](C(C)C)NC1=O` [Compound R3043, [mXylyl(2,7)]M-C-V-E-R-F-C-D-V-Y-W-E-NE2] (H-MCVERFCDVYWE-NH2; linker 2-7 via mXylylene), the IC50 at C5 [1] (setting [3]) was found to be 4230 nM; at C5 [1] (setting [5]), 4330 nM; on C5 [1] (setting [7]), 4120 nM; at C5 [2], 934 nM. Besides, the Ki at C5 [1] (setting [4]) worked out at 874 nM; on C5 [1] (setting [6]), 866 nM; on C5 [1] (setting [8]), 882 nM. The “competition with labeled probe / affinity for C5 (in words)” value at C5 [1] (probe R3076 25 nM, C5 50 nM) is reported as “weak affinity”.
With `CCC[C@H](NC(=O)[C@@H](NC(=O)[C@@H]1CCCN1C(=O)[C@H](Cc1ccc(O)cc1)NC(=O)[C@H](CCC(=O)O)NC(=O)[C@H](Cc1c[nH]c2ncccc12)NC(=O)[C@H](Cc1ccc(O)cc1)NC(=O)[C@@H](NC(C)=O)C(C)(C)C)c1ccccc1)C(N)=O` [Compound R3028, Ac-Tbg-Y-azaTrp-E-Y-P-Phg-Nvl-NH2] (Ac-[Tle]Y[Trp(7-aza)]EYP[Phg][Nva]-NH2), the concentration for half-maximal inhibition (IC50) on C5 [2] is > 10000 nM.
As to `CC(=O)N[C@H]1CSCc2cccc(c2)CSC[C@@H](C(=O)N[C@@H](CC(=O)O)C(=O)N[C@H](C(=O)N[C@@H](Cc2ccc(O)cc2)C(=O)N[C@@H](Cc2c[nH]c3ccccc23)C(=O)N[C@@H](CCC(=O)O)C(=O)N[C@@H](Cc2ccccc2)C(N)=O)C(C)(C)C)NC(=O)[C@H](Cc2ccccc2)NC(=O)[C@H](CCCNC(=N)N)NC(=O)[C@H](CCC(=O)O)NC(=O)[C@H](C(C)(C)C)NC1=O` [Compound R3139, [mXylyl(1,6)]Ac-C-Tbg-E-R-F-C-D-Tbg-Y-W-E-F-NH2] (Ac-C[Tle]ERFCD[Tle]YWEF-NH2; linker 1-6 via mXylylene), the IC50 at C5 [2] amounted to 97.2 nM.
As for `CCC[C@H](NC(=O)[C@@H]1CCSCc2ccc(cc2)CSC[C@H](NC(=O)[C@H](CCC)NC(C)=O)C(=O)N[C@@H](c2ccccc2)C(=O)N[C@@H]([C@@H](C)O)C(=O)N[C@@H](Cc2c[nH]c3ncccc23)C(=O)N[C@@H](CCC(=O)O)C(=O)N[C@@H](Cc2ccc(O)cc2)C(=O)N(C)[C@@H](CO)C(=O)N[C@@H](Cc2c[nH]cn2)C(=O)N1)C(N)=O` [Compound R3106, [pXylyl(2,10)]Ac-Nvl-C-Phg-T-azaTrp-E-Y-(N-Me)S-H-homoC-Nvl-NH2] (Ac-[Nva]C[Phg]T[Trp(7-aza)]EY[NMeS]H[hCys][Nva]-NH2; linker 2-10 via pXylylene), at C5 [2], the half-inhibitory concentration (IC50) was > 5000 nM.
On to `CCC[C@H](NC(=O)[C@@H]1CSCc2cccc(c2)CSC[C@H](NC(=O)[C@H](CCC)NC(C)=O)C(=O)N[C@@H](Cc2ccccc2)C(=O)N[C@@H]([C@@H](C)O)C(=O)N[C@@H](Cc2c[nH]c3ncccc23)C(=O)N[C@@H](CCC(=O)O)C(=O)N[C@@H](Cc2ccc(O)cc2)C(=O)N(C)[C@@H](CO)C(=O)N[C@@H](C)C(=O)N1)C(N)=O` [Compound R3090, [mXyly1(2,10)]Ac-Nvl-C-F-T-azaTrp-E-Y-(N-Me)S-A-C-Nvl-NH2] (Ac-[Nva]CFT[Trp(7-aza)]EY[NMeS]AC[Nva]-NH2; linker 2-10 via mXylylene), for which the 50% inhibitory concentration (IC50) at C5 [2] was > 100000 nM.

(Values after patent US10208089B2, “Modulation of complement activity” (priority 2014, dated 2019).)
